From the Kinase Knowledgebase extract (Sharma et al. 2016)
pIC50: −log10 of the molar value.

Columns and labels:
PIK3CG (human) = PIK3CG (human) (UniProt P48736); test: Assessment of PIK3CG Kinase Activity
PIK3CA (human) = PIK3CA (human) (UniProt P42336); test: Assessment of PIK3CA Kinase Activity
PIK3CD (Human) [1] = biological target: PIK3CD (Human) (UniProt O00329); test: Enzyme Assay
PIK3CD (Human) [2] = biological target: PIK3CD (Human) (UniProt O00329); test: Cell-Based Assay; conditions: u937

Sequence of PIK3CD (Human) (O00329 whole entry, looked up): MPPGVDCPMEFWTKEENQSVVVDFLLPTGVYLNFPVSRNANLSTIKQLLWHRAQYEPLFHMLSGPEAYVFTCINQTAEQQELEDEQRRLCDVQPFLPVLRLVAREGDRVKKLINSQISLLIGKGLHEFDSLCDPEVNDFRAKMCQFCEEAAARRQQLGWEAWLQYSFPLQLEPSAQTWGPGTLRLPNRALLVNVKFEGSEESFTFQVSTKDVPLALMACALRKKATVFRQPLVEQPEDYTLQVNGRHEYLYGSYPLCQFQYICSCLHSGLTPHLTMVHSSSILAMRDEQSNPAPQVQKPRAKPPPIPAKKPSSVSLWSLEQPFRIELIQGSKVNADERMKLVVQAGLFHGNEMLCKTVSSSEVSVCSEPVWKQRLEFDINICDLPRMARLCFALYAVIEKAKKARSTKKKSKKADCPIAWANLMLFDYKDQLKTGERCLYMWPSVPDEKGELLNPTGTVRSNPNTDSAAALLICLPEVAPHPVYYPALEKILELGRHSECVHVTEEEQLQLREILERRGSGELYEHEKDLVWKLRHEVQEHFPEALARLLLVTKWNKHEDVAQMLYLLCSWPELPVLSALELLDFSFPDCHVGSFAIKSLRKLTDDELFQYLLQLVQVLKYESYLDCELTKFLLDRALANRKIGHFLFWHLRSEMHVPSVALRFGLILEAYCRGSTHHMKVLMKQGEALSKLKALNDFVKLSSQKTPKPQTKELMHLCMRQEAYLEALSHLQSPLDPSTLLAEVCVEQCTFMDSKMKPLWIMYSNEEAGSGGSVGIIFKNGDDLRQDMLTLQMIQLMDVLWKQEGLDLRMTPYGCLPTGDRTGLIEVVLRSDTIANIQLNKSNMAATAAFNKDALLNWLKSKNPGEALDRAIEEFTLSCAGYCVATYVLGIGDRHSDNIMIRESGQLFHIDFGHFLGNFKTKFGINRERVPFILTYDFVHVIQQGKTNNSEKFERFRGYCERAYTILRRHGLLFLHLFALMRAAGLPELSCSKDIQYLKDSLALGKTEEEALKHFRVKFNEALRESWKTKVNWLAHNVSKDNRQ
Sequence of PIK3CG (human) (P48736 whole entry, looked up): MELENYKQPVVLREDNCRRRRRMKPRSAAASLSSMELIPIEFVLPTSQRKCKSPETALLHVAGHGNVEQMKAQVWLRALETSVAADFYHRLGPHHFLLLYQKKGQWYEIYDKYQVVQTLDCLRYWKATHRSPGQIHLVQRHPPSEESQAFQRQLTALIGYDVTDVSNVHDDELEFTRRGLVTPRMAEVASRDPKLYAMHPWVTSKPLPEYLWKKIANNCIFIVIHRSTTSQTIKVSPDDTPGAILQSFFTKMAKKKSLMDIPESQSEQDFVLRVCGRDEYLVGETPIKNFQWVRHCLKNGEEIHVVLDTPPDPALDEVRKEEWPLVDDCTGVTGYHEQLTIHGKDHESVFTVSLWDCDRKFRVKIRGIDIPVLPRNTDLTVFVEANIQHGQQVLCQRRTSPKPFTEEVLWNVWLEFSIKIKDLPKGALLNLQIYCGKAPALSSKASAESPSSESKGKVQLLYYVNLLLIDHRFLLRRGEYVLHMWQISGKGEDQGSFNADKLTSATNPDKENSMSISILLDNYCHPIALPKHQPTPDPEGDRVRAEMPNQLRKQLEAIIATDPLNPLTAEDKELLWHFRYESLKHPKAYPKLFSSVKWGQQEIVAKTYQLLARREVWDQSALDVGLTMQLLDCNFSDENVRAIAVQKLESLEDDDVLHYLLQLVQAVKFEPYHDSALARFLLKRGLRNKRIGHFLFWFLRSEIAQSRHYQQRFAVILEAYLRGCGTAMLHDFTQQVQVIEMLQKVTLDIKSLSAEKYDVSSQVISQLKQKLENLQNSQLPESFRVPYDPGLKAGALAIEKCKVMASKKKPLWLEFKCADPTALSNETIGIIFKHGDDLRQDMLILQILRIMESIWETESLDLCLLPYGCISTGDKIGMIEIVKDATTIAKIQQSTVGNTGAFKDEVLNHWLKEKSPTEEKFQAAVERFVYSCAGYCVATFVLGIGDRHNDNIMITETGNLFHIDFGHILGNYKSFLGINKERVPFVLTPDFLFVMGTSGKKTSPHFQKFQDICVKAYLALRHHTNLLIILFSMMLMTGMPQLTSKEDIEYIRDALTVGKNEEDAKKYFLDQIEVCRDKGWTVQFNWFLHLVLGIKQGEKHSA
Sequence of PIK3CA (human) (P42336 whole entry, looked up): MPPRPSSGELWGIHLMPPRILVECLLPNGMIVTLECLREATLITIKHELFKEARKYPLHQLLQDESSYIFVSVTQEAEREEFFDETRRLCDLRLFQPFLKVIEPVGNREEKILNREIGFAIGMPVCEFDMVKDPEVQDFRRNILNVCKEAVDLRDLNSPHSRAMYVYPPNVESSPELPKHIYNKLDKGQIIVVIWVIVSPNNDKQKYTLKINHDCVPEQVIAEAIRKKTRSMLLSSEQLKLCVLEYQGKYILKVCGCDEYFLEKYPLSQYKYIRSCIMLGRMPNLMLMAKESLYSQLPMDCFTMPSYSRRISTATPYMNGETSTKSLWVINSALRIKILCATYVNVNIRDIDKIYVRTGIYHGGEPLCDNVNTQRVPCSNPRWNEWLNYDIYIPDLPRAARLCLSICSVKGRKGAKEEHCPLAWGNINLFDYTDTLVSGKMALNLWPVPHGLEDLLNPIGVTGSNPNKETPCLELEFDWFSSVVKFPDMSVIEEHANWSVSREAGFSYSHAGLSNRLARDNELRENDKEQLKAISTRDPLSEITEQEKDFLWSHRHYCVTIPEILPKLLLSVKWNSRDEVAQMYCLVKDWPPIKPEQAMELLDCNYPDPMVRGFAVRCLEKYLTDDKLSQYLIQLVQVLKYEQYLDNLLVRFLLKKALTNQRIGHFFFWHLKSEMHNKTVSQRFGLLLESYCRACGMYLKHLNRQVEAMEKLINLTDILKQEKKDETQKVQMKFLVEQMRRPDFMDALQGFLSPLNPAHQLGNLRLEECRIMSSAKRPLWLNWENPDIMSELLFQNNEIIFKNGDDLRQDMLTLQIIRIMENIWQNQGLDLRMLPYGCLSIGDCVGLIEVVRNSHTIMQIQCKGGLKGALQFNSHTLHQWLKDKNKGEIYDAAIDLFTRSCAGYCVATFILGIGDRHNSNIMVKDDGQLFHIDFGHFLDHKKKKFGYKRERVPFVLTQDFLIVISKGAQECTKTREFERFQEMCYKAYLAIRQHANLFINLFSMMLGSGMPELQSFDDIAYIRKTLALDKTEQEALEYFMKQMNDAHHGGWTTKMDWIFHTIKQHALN

**Q.** What does the source list for `C#Cc1cccc2nc(Cn3nc(-c4ccc(O)cc4)c4c(N)ncnc43)n(Cc3cccc(C#N)c3)c(=O)c12`?
**A.** pIC50 (PIK3CG (human)): 6.00 to 7.30; pIC50 (PIK3CA (human)): 6.00 to 7.30; pIC50 (PIK3CD (Human) [1]): > 7.30; pIC50 (PIK3CD (Human) [2]): > 8.00

**Q.** With `COCCOCCOCC#Cc1cccc2nc(Cn3nc(-c4cccc(O)c4)c4c(N)ncnc43)n(Cc3ccccc3Cl)c(=O)c12` as the molecule, how does the pIC50 (PIK3CG (human)) read?
**A.** Its pIC50 is 6.00 to 7.30.

**Q.** What about the pIC50 (PIK3CD (Human) [1]) of the same molecule?
**A.** Its pIC50 is > 7.30.

**Q.** What about the pIC50 (PIK3CD (Human) [2]) of the same molecule?
**A.** Its pIC50 is > 8.00.

**Q.** With `COCCOCC#Cc1cccc2nc(Cn3nc(-c4cccc(O)c4)c4c(N)ncnc43)n(Cc3ccccc3Cl)c(=O)c12` as the molecule, how does the pIC50 (PIK3CG (human)) read?
**A.** Its pIC50 is 6.00 to 7.30.

**Q.** What about the pIC50 (PIK3CA (human)) of the same molecule?
**A.** Its pIC50 is 6.00 to 7.30.

**Q.** And the pIC50 (PIK3CD (Human) [1])?
**A.** The pIC50 was > 7.30.

**Q.** What about the pIC50 (PIK3CD (Human) [2]) of the same molecule?
**A.** Its pIC50 is > 8.00.

**Q.** How did the pIC50 (PIK3CG (human)) turn out when `Nc1ncnc2c1c(-c1ccc(O)cc1)nn2Cc1nc2cccc(C#CCCCC(=O)NC3CCNC3)c2c(=O)n1Cc1ccccc1Cl` (centres undefined) was run?
**A.** The pIC50 was > 7.30.

**Q.** And the pIC50 (PIK3CA (human))?
**A.** Its pIC50 is 5.83.

**Q.** What about the pIC50 (PIK3CD (Human) [1]) of the same molecule?
**A.** Its pIC50 is > 7.30.

**Q.** What about the pIC50 (PIK3CD (Human) [2]) of the same molecule?
**A.** The pIC50 was > 8.00.

**Q.** How did the pIC50 (PIK3CD (Human) [2]) turn out when `C#Cc1cccc2nc(Cn3nc(-c4ccc(O)cc4)c4c(N)ncnc43)n(Cc3cccc(Cl)c3F)c(=O)c12` was run?
**A.** The pIC50 was > 8.00.

**Q.** How did the pIC50 (PIK3CD (Human) [2]) turn out when `Nc1ncnc2c1c(-c1ccc(O)cc1)nn2Cc1nc2cccc(C#CCOc3ccccc3)c2c(=O)n1Cc1ccccc1Cl` was run?
**A.** Its pIC50 is > 8.00.

**Q.** `CN1CCCN(C(=O)CCCC#Cc2cccc3nc(Cn4nc(-c5ccc(O)cc5)c5c(N)ncnc54)n(Cc4ccccc4Cl)c(=O)c23)CC1` was tested. Which pIC50 (PIK3CD (Human) [2]) did it give?
**A.** The pIC50 was > 8.00.

**Q.** With `Nc1ncnc2c1c(-c1cccc(O)c1)nn2Cc1nc2cccc(C#CCCCC(=O)N3CCOCC3)c2c(=O)n1Cc1ccc2occc2c1` as the molecule, how does the pIC50 (PIK3CD (Human) [2]) read?
**A.** Its pIC50 is > 8.00.

**Q.** With `Cc1cnc(Cn2c(Cn3nc(-c4cccc(O)c4)c4c(N)ncnc43)nc3cccc(C#CCCCC(=O)N4CCOCC4)c3c2=O)cn1` as the molecule, how does the pIC50 (PIK3CG (human)) read?
**A.** The pIC50 was > 7.30.

**Q.** And the pIC50 (PIK3CA (human))?
**A.** Its pIC50 is 6.00 to 7.30.

**Q.** And the pIC50 (PIK3CD (Human) [1])?
**A.** Its pIC50 is > 7.30.

**Q.** What about the pIC50 (PIK3CD (Human) [2]) of the same molecule?
**A.** The pIC50 was > 8.00.

**Q.** How did the pIC50 (PIK3CG (human)) turn out when `CC(=O)NCC(=O)NCC#Cc1cccc2nc(Cn3nc(-c4cccc(O)c4)c4c(N)ncnc43)n(Cc3ccccc3Cl)c(=O)c12` was run?
**A.** The pIC50 was > 7.30.

**Q.** And the pIC50 (PIK3CA (human))?
**A.** Its pIC50 is 6.00 to 7.30.

**Q.** And the pIC50 (PIK3CD (Human) [1])?
**A.** The pIC50 was > 7.30.

**Q.** What about the pIC50 (PIK3CD (Human) [2]) of the same molecule?
**A.** The pIC50 was > 8.00.

**Q.** With `C#Cc1cccc2nc(Cn3nc(-c4ccc(O)cc4)c4c(N)ncnc43)n(Cc3ccc(Cl)cc3)c(=O)c12` as the molecule, how does the pIC50 (PIK3CD (Human) [2]) read?
**A.** Its pIC50 is > 8.00.

**Q.** How did the pIC50 (PIK3CD (Human) [2]) turn out when `Cn1cc(Cn2c(Cn3nc(-c4cccc(O)c4)c4c(N)ncnc43)nc3cccc(C#CCCCC(=O)N4CCOCC4)c3c2=O)cn1` was run?
**A.** The pIC50 was > 8.00.
